Assay results taken from PMC7217150, “Synthesis, Modification, and Biological Evaluation of a Library of Novel Water‐Soluble Thiopyridone‐Based Organometallic Complexes and Their Unexpected (Biological) Behavior” (Chemistry (Weinheim an Der Bergstrasse, Germany), 2020).

Legend:
Assay type in all cases: cell-based, human
CH1/PA‐1 [1] = test: MTT cytotoxicity assay, monolayer culture; conditions: CH1/PA‐1, MTT assay, exposure time 96 h, means ± SDs
From the text: (§1) A549 (non‐small cell lung carcinoma), SW480 and HCT‐116 (both colon carcinoma) were kindly provided by Brigitte Marian, Institute of Cancer Research, Department of Medicine I, Medical University of Vienna, Austria. The cell line CH1/PA‐1 (ovarian teratocarcinoma) was kindly provided by Lloyd R. Kelland (CRC Centre for Cancer Therapeutics, Institute of Cancer Research, Sutton, UK). All cell culture media (including supplements) and reagents were obtained from Sigma–Aldrich, and all plasticware from StarLab, unless indicated otherwise.

A549 = test: MTT cytotoxicity assay, monolayer culture; conditions: exposure time 96 h, means ± SDs
From the text: as §1

SW480 [2] = test: MTT cytotoxicity assay, monolayer culture; conditions: for IC50: SW480, MTT assay, exposure time 96 h, means ± SDs
From the text: as §1

CH1/PA‐1 [3] = test: Cell cycle distribution, flow cytometry with propidium iodide; conditions: for Cell cycle distribution G1, % / Cell cycle distribution G2/M, % / Cell cycle distribution S, %: 24 h, mean ± SD; for Relative change in cell cycle distribution G1, % / Relative change in cell cycle distribution G2/M, % / Relative change in cell cycle distribution S, %: difference to untreated control
Description: (§2) The influence of two ligands, as well as seven complexes on cell cycle distribution was tested in two of the cancer cell lines (SW480, CH1/PA‐1) by means of flow cytometry. The cell cycle distribution (G1, S, G2/M phase in %; Table S37) was investigated upon DNA staining with propidium iodide.
(§3) CH1/PA‐1 and SW480 cells were harvested by trypsinization, 8×10^4 and 1.2×10^5 cells per well were seeded into 12‐well plates, respectively. The cells were allowed to attach and resume proliferation for 24 h after the seeding. […] After continuous exposure for 24 h at 37 °C and under 5 % CO2, the cells were harvested by trypsinization and centrifuged at 300 g for 3 min. The cells were washed with PBS (1 mL) and resuspended in propidium iodine (PI) containing HSF buffer (600 μL; 0.1 % Triton X‐100, 0.1 % sodium citrate, 50 μg mL^−1 PI in PBS). After incubation overnight at 4 °C in the dark, 5×10^3 cells were measured by flow cytometry with a Millipore Guava easyCyte 8HT instrument (Luminex, USA). Data were evaluated by means of FlowJo software (Tree Star) using Watson Pragmatic algorithms.60 The fitting of the curve was chosen to keep the root mean square error between 1.0 and 2.0, alongside with good fitting visual model.

SW480 [4] = test: as above; conditions: for Cell cycle distribution G1, % / Cell cycle distribution G2/M, % / Cell cycle distribution S, %: 24 h, mean ± SD; for Relative change in cell cycle distribution G1, % / Relative change in cell cycle distribution G2/M, % / Relative change in cell cycle distribution S, %: difference to untreated control
Description: as §2, §3

Compound: Cc1c(O)c(=S)ccn1-c1ccccc1 [Compound 2 b, 3‐hydroxy‐2‐methyl‐1‐phenylpyridine‐4(1H)‐thione]
- IC50 (CH1/PA‐1 [1]; Homo sapiens): 520 ± 50 nM
- IC50 (A549; Homo sapiens): 1600 ± 1200 nM
- IC50 (SW480 [2]; Homo sapiens): 520 ± 30 nM

Compound: Cc1c(O)c(=S)ccn1Cc1ccccc1 [Compound 2 c, 3‐hydroxy‐2‐methyl‐1‐benzylpyridine‐4(1H)‐thione]
- Cell cycle distribution G1, % (CH1/PA‐1 [3]; CH1/PA-1, 2.5 µM): 43 ± 16%
- Cell cycle distribution G2/M, % (CH1/PA‐1 [3]; CH1/PA-1, 2.5 µM): 19 ± 9%
- Cell cycle distribution S, % (CH1/PA‐1 [3]; CH1/PA-1, 2.5 µM): 37 ± 5%
- Relative change in cell cycle distribution G1, % (CH1/PA‐1 [3]; CH1/PA-1, 2.5 µM): 3%
- Relative change in cell cycle distribution G2/M, % (CH1/PA‐1 [3]; CH1/PA-1, 2.5 µM): -5%
- Relative change in cell cycle distribution S, % (CH1/PA‐1 [3]; CH1/PA-1, 2.5 µM): 1%
- Cell cycle distribution G1, % (CH1/PA‐1 [3]; CH1/PA-1, 5 µM): 31 ± 5%
- Cell cycle distribution G2/M, % (CH1/PA‐1 [3]; CH1/PA-1, 5 µM): 32 ± 4%
- Cell cycle distribution S, % (CH1/PA‐1 [3]; CH1/PA-1, 5 µM): 37 ± 2%
- Relative change in cell cycle distribution G1, % (CH1/PA‐1 [3]; CH1/PA-1, 5 µM): -9%
- Relative change in cell cycle distribution G2/M, % (CH1/PA‐1 [3]; CH1/PA-1, 5 µM): 8%
- Relative change in cell cycle distribution S, % (CH1/PA‐1 [3]; CH1/PA-1, 5 µM): 1%
- Cell cycle distribution G1, % (CH1/PA‐1 [3]; CH1/PA-1, 10 µM): 31 ± 6%
- Cell cycle distribution G2/M, % (CH1/PA‐1 [3]; CH1/PA-1, 10 µM): 26 ± 10%
- Cell cycle distribution S, % (CH1/PA‐1 [3]; CH1/PA-1, 10 µM): 43 ± 8%
- Relative change in cell cycle distribution G1, % (CH1/PA‐1 [3]; CH1/PA-1, 10 µM): -9%
- Relative change in cell cycle distribution G2/M, % (CH1/PA‐1 [3]; CH1/PA-1, 10 µM): 2%
- Relative change in cell cycle distribution S, % (CH1/PA‐1 [3]; CH1/PA-1, 10 µM): 7%
- effect on cell cycle distribution, in words (CH1/PA‐1 [3]; CH1/PA‐1 cells): little effect
- decrease in G1 phase (CH1/PA‐1 [3]; CH1/PA‐1 cells, 10 μM): 9%
- Cell cycle distribution G1, % (SW480 [4]; SW480, 5 µM): 30 ± 1%
- Cell cycle distribution G2/M, % (SW480 [4]; SW480, 5 µM): 31 ± 3%
- Cell cycle distribution S, % (SW480 [4]; SW480, 5 µM): 39 ± 2%
- Relative change in cell cycle distribution G1, % (SW480 [4]; SW480, 5 µM): -18%
- Relative change in cell cycle distribution G2/M, % (SW480 [4]; SW480, 5 µM): 12%
- Relative change in cell cycle distribution S, % (SW480 [4]; SW480, 5 µM): 6%
- Cell cycle distribution G1, % (SW480 [4]; SW480, 10 µM): 27 ± 3%
- Cell cycle distribution G2/M, % (SW480 [4]; SW480, 10 µM): 27 ± 3%
- Cell cycle distribution S, % (SW480 [4]; SW480, 10 µM): 45 ± 2%
- Relative change in cell cycle distribution G1, % (SW480 [4]; SW480, 10 µM): -21%
- Relative change in cell cycle distribution G2/M, % (SW480 [4]; SW480, 10 µM): 8%
- Relative change in cell cycle distribution S, % (SW480 [4]; SW480, 10 µM): 12%
- Cell cycle distribution G1, % (SW480 [4]; SW480, 20 µM): 34 ± 5%
- Cell cycle distribution G2/M, % (SW480 [4]; SW480, 20 µM): 17 ± 3%
- Cell cycle distribution S, % (SW480 [4]; SW480, 20 µM): 49 ± 1%
- Relative change in cell cycle distribution G1, % (SW480 [4]; SW480, 20 µM): -14%
- Relative change in cell cycle distribution G2/M, % (SW480 [4]; SW480, 20 µM): -2%
- Relative change in cell cycle distribution S, % (SW480 [4]; SW480, 20 µM): 16%
- decrease in G1 (SW480 [4]; SW480 cells, 2.5 μM): 18%
- IC50 (A549; Homo sapiens): 790 ± 120 nM
- IC50 (SW480 [2]; Homo sapiens): 280 ± 40 nM

Compound: Cc1c(O)c(=S)ccn1-c1cccc2ccccc12 [Compound 2 d, 3‐hydroxy‐2‐methyl‐1‐(naphthalene‐1‐yl)pyridine‐4(1H)‐thione]
- IC50 (CH1/PA‐1 [1]; Homo sapiens): 620 ± 80 nM
- IC50 (A549; Homo sapiens): 1600 ± 100 nM
- IC50 (SW480 [2]; Homo sapiens): 350 ± 20 nM

Compound: Cc1c([O-])c(=S)ccn1-c1ccccc1.Cc1ccc(C(C)C)cc1.[Cl-].[Ru+2] [Compound 3 b, Chlorido[2‐methyl‐3‐(oxo‐κO)‐1‐phenylpyridine‐4(1H)‐thionato‐κS](η^6‐p‐cymene)ruthenium(II)]
- IC50 (CH1/PA‐1 [1]): 940 ± 80 nM
- IC50 (A549): 2400 ± 800 nM
- IC50 (SW480 [2]): 2800 ± 100 nM

Compound: Cc1c([O-])c(=S)ccn1-c1cccc2ccccc12.Cc1ccc(C(C)C)cc1.[Cl-].[Ru+2] [Compound 3 d, Chlorido[2‐methyl‐1‐(naphthalene‐1‐yl)‐3‐(oxo‐κO)‐pyridine‐4(1H)‐thionato‐κS](η^6‐p‐cymene)ruthenium(II)]
- IC50 (CH1/PA‐1 [1]): 1600 ± 300 nM
- IC50 (A549): 2100 ± 300 nM
- IC50 (SW480 [2]): 4000 ± 300 nM

Compound: Cc1c([O-])c(=S)ccn1C.Cc1ccc(C(C)C)cc1.[Cl-].[Os+2] [Compound 4 a, [Chlorido[1,2‐dimethyl‐3‐(oxo‐κO)‐pyridine‐4(1H)‐thionato‐κS](η^6‐p‐cymene)osmium(II)]]
- IC50 (CH1/PA‐1 [1]): 112000 ± 27000 nM
- IC50 (A549): > 200000 nM
- IC50 (SW480 [2]): > 200000 nM

Compound: Cc1c([O-])c(=S)ccn1-c1cccc2ccccc12.Cc1ccc(C(C)C)cc1.[Cl-].[Os+2] [Compound 4 d, Chlorido[2‐methyl‐1‐(naphthalene‐1‐yl)‐3‐(oxo‐κO)‐pyridine‐4(1H)‐thionato‐κS](η^6‐p‐cymene)osmium(II)]
- IC50 (CH1/PA‐1 [1]): 1300 ± 300 nM
- IC50 (A549): 2400 ± 300 nM
- IC50 (SW480 [2]): 7700 ± 300 nM
- IC50 relative to the osmium thiomaltol complex (SW480 [2]; SW480 cells): four times higher

Compound: COc1cc([C@@H]2c3cc4c(cc3[C@@H](O[C@@H]3O[C@@H]5CO[C@@H](C)O[C@H]5[C@H](O)[C@H]3O)[C@H]3COC(=O)[C@H]23)OCO4)cc(OC)c1O [Etoposide, reference compound]
- Cell cycle distribution G1, % (CH1/PA‐1 [3]; CH1/PA-1, 0.25 µM): 8 ± 5%
- Cell cycle distribution S, % (CH1/PA‐1 [3]; CH1/PA-1, 0.25 µM): 15 ± 4%
- Relative change in cell cycle distribution G1, % (CH1/PA‐1 [3]; CH1/PA-1, 0.25 µM): -32%
- Relative change in cell cycle distribution G2/M, % (CH1/PA‐1 [3]; CH1/PA-1, 0.25 µM): 53%
- Relative change in cell cycle distribution S, % (CH1/PA‐1 [3]; CH1/PA-1, 0.25 µM): -21%
- Cell cycle distribution G1, % (CH1/PA‐1 [3]; CH1/PA-1, 0.5 µM): 4 ± 1%
- Cell cycle distribution G2/M, % (CH1/PA‐1 [3]; CH1/PA-1, 0.5 µM): 85 ± 5%
- Cell cycle distribution S, % (CH1/PA‐1 [3]; CH1/PA-1, 0.5 µM): 10 ± 3%
- Relative change in cell cycle distribution G1, % (CH1/PA‐1 [3]; CH1/PA-1, 0.5 µM): -36%
- Relative change in cell cycle distribution G2/M, % (CH1/PA‐1 [3]; CH1/PA-1, 0.5 µM): 61%
- Cell cycle distribution G1, % (CH1/PA‐1 [3]; CH1/PA-1, 1 µM): 3 ± 3%
- Cell cycle distribution G2/M, % (CH1/PA‐1 [3]; CH1/PA-1, 1 µM): 87 ± 6%
- Cell cycle distribution S, % (CH1/PA‐1 [3]; CH1/PA-1, 1 µM): 10 ± 5%
- Relative change in cell cycle distribution G1, % (CH1/PA‐1 [3]; CH1/PA-1, 1 µM): -37%
- Relative change in cell cycle distribution G2/M, % (CH1/PA‐1 [3]; CH1/PA-1, 1 µM): 63%
- Cell cycle distribution G1, % (SW480 [4]; SW480, 0.25 µM): 9 ± 2%
- Cell cycle distribution G2/M, % (SW480 [4]; SW480, 0.25 µM): 65 ± 10%
- Cell cycle distribution S, % (SW480 [4]; SW480, 0.25 µM): 26 ± 4%
- Relative change in cell cycle distribution G1, % (SW480 [4]; SW480, 0.25 µM): -39%
- Relative change in cell cycle distribution G2/M, % (SW480 [4]; SW480, 0.25 µM): 46%
- Relative change in cell cycle distribution S, % (SW480 [4]; SW480, 0.25 µM): -7%
- Cell cycle distribution G1, % (SW480 [4]; SW480, 0.5 µM): 3 ± 1%
- Cell cycle distribution G2/M, % (SW480 [4]; SW480, 0.5 µM): 78 ± 6%
- Cell cycle distribution S, % (SW480 [4]; SW480, 0.5 µM): 19 ± 7%
- Relative change in cell cycle distribution G1, % (SW480 [4]; SW480, 0.5 µM): -45%
- Relative change in cell cycle distribution G2/M, % (SW480 [4]; SW480, 0.5 µM): 59%
- Relative change in cell cycle distribution S, % (SW480 [4]; SW480, 0.5 µM): -14%
- Cell cycle distribution G1, % (SW480 [4]; SW480, 1 µM): 6 ± 4%
- Cell cycle distribution G2/M, % (SW480 [4]; SW480, 1 µM): 65 ± 10%
- Cell cycle distribution S, % (SW480 [4]; SW480, 1 µM): 30 ± 15%
- Relative change in cell cycle distribution G1, % (SW480 [4]; SW480, 1 µM): -42%
- Relative change in cell cycle distribution G2/M, % (SW480 [4]; SW480, 1 µM): 46%
- Relative change in cell cycle distribution S, % (SW480 [4]; SW480, 1 µM): -3%

Compound: Chlorido[1‐(naphthalene‐1‐yl)‐2‐methyl‐3‐oxo‐κO‐pyridine‐4(1H)‐thionato‐κS](η^5‐1,2,3,4,5‐pentamethylcyclopentadienyl)iridium(III) [Compound 6 d]
- IC50 (CH1/PA‐1 [1]): 680 ± 20 nM
- IC50 (A549): 2000 ± 400 nM
- IC50 (SW480 [2]): 800 ± 150 nM

Compound: Chlorido[1‐phenyl‐2‐methyl‐3‐oxo‐κO‐pyridine‐4(1H)‐thionato‐κS](η^5‐1,2,3,4,5‐pentamethylcyclopentadienyl)iridium(III) [Compound 6 b]
- IC50 (CH1/PA‐1 [1]): 820 ± 50 nM
- IC50 (A549): 2200 ± 800 nM
- IC50 (SW480 [2]): 590 ± 80 nM
